Assays:
[1] = target: T1, Melanin-concentrating hormone receptor 1 (Homo sapiens, UniProt Q99705); assay: Concentration required to inhibit binding of [125I]MCH radioligand to human Melanin-concentrating hormone receptor 1 in IMR-32 I3.4.2 cell membranes
[2] = target: T1, Melanin-concentrating hormone receptor 1; assay: Concentration required to inhibit 50% of melanin-concentrating hormone induced [Ca2+] flux in IMR-32 cells measured by using a fluorometric imaging plate reader; type: functional, cell-based
[3] = Maximum concentration in brain was determined at the peroral dose of 10 mg/kg in diet-induced obese (DIO) mice; unit may be ng/mL or ng/g; type: ADME, organism-based; set-up: dose 10 mg/kg, route oral; conditions: mouse, po
[4] = Maximum concentration in plasma was determined at the peroral dose of 10 mg/kg in diet-induced obese (DIO) mice; unit may be ng/mL or ng/g; type: ADME, organism-based; set-up: dose 10 mg/kg, route oral; conditions: mouse, po
[5] = Half life in brain was determined at the peroral dose of 10 mg/kg in diet-induced obese (DIO) mice; type: ADME, organism-based; set-up: dose 10 mg/kg, route oral; conditions: mouse, po
[6] = Half life in plasma was determined at the peroral dose of 10 mg/kg in diet-induced obese (DIO) mice; type: ADME, organism-based; set-up: dose 10 mg/kg, route oral; conditions: mouse, po
[7] = Area under curve in brain was determined at the peroral dose of 10 mg/kg in diet-induced obese (DIO) mice; unit may be ng.h/mL or ng.h/g; type: ADME, organism-based; set-up: dose 10 mg/kg, route oral; conditions: mouse, in vivo, po
[8] = Area under curve in plasma was determined at the peroral dose of 10 mg/kg in diet-induced obese (DIO) mice; unit may be ng.h/mL or ng.h/g; type: ADME, organism-based; set-up: dose 10 mg/kg, route oral; conditions: mouse, in vivo, po
[9] = Brain/plasma ratio was determined in diet-induced obese (DIO) mice; type: ADME, cell-free; conditions: mouse, brain and plasma
[10] = Area under curve in brain was determined in diet-induced obese (DIO) mice; type: ADME, tissue-based; conditions: mouse, in vivo

T1 sequence (Q99705 whole entry): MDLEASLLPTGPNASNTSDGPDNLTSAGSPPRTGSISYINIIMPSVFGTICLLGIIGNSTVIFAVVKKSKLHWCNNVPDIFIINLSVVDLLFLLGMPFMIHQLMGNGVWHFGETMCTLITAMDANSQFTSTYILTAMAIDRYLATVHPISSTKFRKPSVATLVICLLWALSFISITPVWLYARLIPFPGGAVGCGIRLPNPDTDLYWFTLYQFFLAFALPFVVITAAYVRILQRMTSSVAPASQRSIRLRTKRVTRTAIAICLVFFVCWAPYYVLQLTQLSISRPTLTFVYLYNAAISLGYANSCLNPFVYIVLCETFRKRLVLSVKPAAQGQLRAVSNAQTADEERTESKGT

Row | IC50 [1] | IC50 [2] | SMILES | also measured
1 | 120 nM | 1690 nM | Nc1ccc2cccc(O[C@H]3CCN(Cc4ccccc4)C3)c2n1 | –
2 | 41 nM | 41 nM | CC(C)Cc1ccc(N2CCC(Oc3cccc4ccc(NCc5ccc(-c6cccc(C(F)(F)F)c6)o5)nc34)C2)cc1 (stereo not drawn) | –
3 | 1.2 nM | 53.3 nM | CC(C)Cc1ccc(N2CCC(Oc3cccc4ccc(N)nc34)C2)cc1 (stereo not drawn) | –
4 | 70 nM | 30 nM | Nc1ccc2cccc(O[C@H]3CCN(Cc4ccc5c(c4)OCO5)C3)c2n1 | Cmax [3]: 183 ng/mL; Cmax [4]: 543 ng/mL; half-life [5]: 8.3 h; half-life [6]: 6.5 h; AUC [7]: 1710 ng·h/mL; AUC [8]: 1350 ng·h/mL
5 | > 2000 nM | > 10000 nM | CN(C)c1ccc2cccc(OC3CCN(c4ccc5c(c4)OCO5)C3)c2n1 (stereo not drawn) | –
6 | 2.7 nM | 51 nM | Nc1ccc2cccc(OC3CCN(c4ccc5c(c4)OCCO5)C3)c2n1 (stereo not drawn) | –
7 | 580 nM | > 10000 nM | Nc1ccc2cccc(O[C@@H]3CCN(Cc4ccccc4)C3)c2n1 | –
8 | 0.9 nM | 22.4 nM | Nc1ccc2cccc(OC3CCN(c4ccc5c(c4)OC(F)(F)O5)C3)c2n1 (stereo not drawn) | Cmax [3]: 2860 ng/mL; Cmax [4]: 331 ng/mL; half-life [5]: 5.1 h; half-life [6]: 4.6 h; AUC [7]: 17700 ng·h/mL; AUC [8]: 801 ng·h/mL
9 | 149 nM | > 10000 nM | CC(C)Cc1ccc(N2CCC(Oc3cccc4ccc(NCC5CC5)nc34)C2)cc1 (stereo not drawn) | –
10 | 1 nM | 30 nM | CC(C)(C)c1ccc(CN2CC[C@H](Oc3cccc4ccc(N)nc34)C2)cc1 | –
11 | 730 nM | 9140 nM | Nc1ccc2cccc(O[C@H]3CCN(C(=O)c4ccc5c(c4)OCO5)C3)c2n1 | –
12 | – | 7 nM | Nc1ccc2cccc(OCCCNC(=O)c3cccc(Cl)c3)c2n1 | Kp [9]: 0.03; AUC [10]: 11 ng·h/mL
13 | – | – | Nc1ccc2cccc(OCCCNCc3ccc(Cl)c(C(F)(F)F)c3)c2n1 | Kp [9]: 0.96; AUC [10]: 9520 ng·h/mL
14 | 210 nM | 1140 nM | CC(C)(C)c1ccc(S(=O)(=O)N2CC[C@H](Oc3cccc4ccc(N)nc34)C2)cc1 | –
15 | 90 nM | 1260 nM | CC(=O)Nc1ccc(CN2CC[C@H](Oc3cccc4ccc(N)nc34)C2)cc1 | –
16 | 38.6 nM | 531 nM | Nc1ccc2cccc(O[C@@H]3CCN(c4ccc5c(c4)OC(F)(F)O5)C3)c2n1 | –
17 | 20.5 nM | 224 nM | CCC(c1ccccc1)N1CCC(Oc2cccc3ccc(N)nc23)C1 (stereo not drawn) | –
18 | 25.6 nM | 244 nM | CNc1ccc2cccc(OC3CCN(c4ccc5c(c4)OCCO5)C3)c2n1 (stereo not drawn) | –
19 | 70 nM | 1600 nM | Nc1ccc2cccc(O[C@@H]3CCN(Cc4ccc5c(c4)OCO5)C3)c2n1 | –

Row | SMILES | IC50 [1] | IC50 [2] | also measured
20 | CC(Cc1ccc2c(c1)OCO2)N1CCC(Oc2cccc3ccc(N)nc23)C1 (stereo not drawn) | 2.2 nM | 79.2 nM | –

Reference: ChEMBL document CHEMBL1137036, “Synthesis and evaluation of 2-amino-8-alkoxy quinolines as MCHr1 antagonists. Part 3” (Bioorg Med Chem Lett, 2004)
